According to ChEMBL document CHEMBL1201862, “PubChem BioAssay data set” (2004):
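Dose response: 5 concentrations. Exposure: 48 h. Format: 96-well plates. Endpoint: linear interpolation; highest concentration if not reached. GI50 is the concentration that inhibits growth by half.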 The source made the active and inactive calls. No stated cut-off is given here; in the data, active = GI50 up to about 1.1 µM and inactive = higher.

What was measured:
Test in all cases: NCI-60 cell line screen, 48 h
RXF 631 = test system: RXF 631
HOP-18 = test system: HOP-18
DMS-114 = test system: DMS-114
XF498 = test system: XF498
KM-20L2 = test system: KM-20L2
DLD-1 = test system: DLD-1
LXFL 529 = test system: LXFL 529
SNB-78 = test system: SNB-78

Measured: GI50

O=c1[nH]cc(C(F)(C(F)(F)F)C(F)(F)F)c(=O)[nH]1
inactive: RXF 631 > 100 µM | HOP-18 > 100 µM | DMS-114 > 100 µM | XF498 > 100 µM | KM-20L2 > 100 µM | DLD-1 > 100 µM | LXFL 529 > 100 µM | SNB-78 > 100 µM

COc1ccc(Cc2nc3ccccc3s2)cc1OC
inactive: RXF 631 17.7 µM | HOP-18 23.9 µM | DMS-114 15.7 µM | XF498 15.3 µM | KM-20L2 19.3 µM | DLD-1 16.6 µM | LXFL 529 17.5 µM | SNB-78 19.8 µM

CC(Oc1ccc2cc(C(=O)c3ccccc3)c(=O)oc2c1)C(=O)O (stereo not given)
inactive: RXF 631 > 100 µM | HOP-18 > 100 µM | DMS-114 > 100 µM | XF498 > 100 µM | KM-20L2 > 100 µM | LXFL 529 > 100 µM | SNB-78 > 100 µM

O=[N+]([O-])c1cc([N+](=O)[O-])c(C(Cl)C(Cl)c2ccccc2)cc1C(Cl)C(Cl)c1ccccc1 (stereo not given)
inactive: RXF 631 2.07 µM | HOP-18 1.46 µM | DMS-114 1.7 µM | XF498 1.87 µM | KM-20L2 2.06 µM | DLD-1 1.71 µM | LXFL 529 1.54 µM | SNB-78 2.99 µM

CCOC(=N)CC(=O)Nc1ccccc1CC
inactive: RXF 631 > 100 µM | HOP-18 > 100 µM | XF498 > 100 µM | KM-20L2 > 100 µM | DLD-1 > 100 µM | LXFL 529 > 100 µM | SNB-78 > 100 µM

O=C(CCn1[nH]c(=O)c(Cl)c(Cl)c1=O)NNC(=O)C[n+]1ccccc1
inactive: RXF 631 > 100 µM | HOP-18 > 100 µM | DMS-114 > 100 µM | XF498 > 100 µM | KM-20L2 > 100 µM | DLD-1 > 100 µM | LXFL 529 > 100 µM
